≈ marks a conversion by molar mass, not a printed value.
How the values were obtained:
P. falciparum K1 strain = assay: In vitro assay for Plasmodium falciparum ([3H]-hypoxanthine incorporation); format: cell-based; settings: K1 strain (chloroquine- and pyrimethamine-resistant), erythrocytic stages, means of two determinations ± deviation, read-out: IC50 Plasmodium falciparum
Experimental: Activity against the erythrocytic stages of P. falciparum was determined using an in vitro modified [^3H]-hypoxanthine incorporation assay, using the chloroquine- and pyrimethamine-resistant K1 strain [68]. Compounds were dissolved in DMSO at 10 mg/mL and further diluted in medium before added to parasite cultures incubated in RPMI 1640 medium without hypoxanthine, supplemented with HEPES (5.94 g/l), NaHCO3 (2.1 g/L), neomycin (100 U/mL), AlbumaxR (5 g/L), and washed human red cells A+ at 2.5% haematocrit (0.3% parasitaemia). Serial drug dilutions of seven 3-fold dilution steps covering a range from 90 to 0.123 μg/mL were prepared. The 96 well plates were incubated in a humidified atmosphere at 37 °C; 4% CO2, 3% O2, 93% N2. After 48 h 50 μL of ^3H-hypoxanthine (=0.5 μCi) was added to each well of the plate. The plates were incubated for a further 24 h under the same conditions. The plates were then harvested with a Betaplate™ cell harvester (Wallac, Zurich, Switzerland), and the red blood cells transferred onto a glass fiber filter then washed with distilled water. The dried filters were inserted into a plastic foil with 10 mL of scintillation fluid, and counted in a Betaplate™ liquid scintillation counter (Wallac, Zurich, Switzerland). […] IC50 values were calculated from the sigmoidal inhibition curves using Microsoft Excel. Chloroquine was used as positive control drug.

T. evansi = tested on: T. evansi; set-up: method as in PMID 26773165; settings: cited from earlier work
[1] = tested on: L. donovani (strain MHOM/ET/67/L82) amastigotes; assay: In vitro assay for Leishmania donovani axenic amastigotes (resazurin); format: cell-based; settings: axenic amastigotes, 72 h, means of two determinations ± deviation, read-out: IC50 Leishmania donovani
Experimental: Amastigotes of L. donovani (strain MHOM/ET/67/L82) were grown in axenic culture at 37 °C in SM medium at pH 5.4 supplemented with 10% heat-inactivated FBS under an atmosphere of 5% CO2. Culture medium (100 μL) with 10^5 amastigotes from axenic culture with or without a serial drug dilution was seeded in 96 well microtiter plates. Serial drug was prepared covering a range of dilutions from 90 to 0.123 μg/mL. After 72 h of incubation, the plates were inspected under an inverted microscope to assure growth of the controls and sterile conditions. Subsequently, 10 μL resazurin solution (12.5 mg resazurin dissolved in 100 mL double-distilled water) was added to each well and the plates were incubated for another 2 h. The plates were then read with a Spectramax Gemini XS microplate fluorometer (Molecular Devices Cooperation, Sunnyvale, CA, USA) using an excitation wavelength of 536 nm and an emission wavelength of 588 nm. Data were analyzed using the software Softmax Pro (Molecular Devices Cooperation, Sunnyvale, CA, USA). A decrease of fluorescence (=inhibition) was expressed as percentage of the fluorescence of control cultures and plotted against the drug concentrations. From the sigmoidal inhibition curves, the IC50 values were calculated. Miltefosine was used as a reference drug.

[2] = tested on: T. cruzi Tulahuen strain C2C4; assay: In vitro assay for Trypanosoma cruzi in L-6 cells (β-galactosidase/CPRG); format: cell-based; settings: Trypanosoma cruzi, L6; Tulahuen C2C4 in L-6 cells, 96 h; highest concentration tested 90 μg/mL; means of two determinations ± deviation
Experimental: Rat skeletal myoblasts (L-6 cells) were seeded in 96 well microtiter plates (2000 cells/well) in 100 μL RPMI 1640 medium with 10% FBS and 2 mM L-glutamine for 24 h. After that, the medium was removed and replaced by 100 μL per well containing 5000 trypomastigote forms of T. cruzi Tulahuen strain C2C4, containing the β-galactosidase (Lac Z) gene. The medium was removed from the wells after 48 h, and replaced with 100 μL fresh medium with or without a serial drug dilution of seven 3-fold dilution steps covering a range from 90 to 0.123 μg/mL. After 96 h of incubation, the plates were inspected under an inverted microscope to assure growth of the controls and sterility, after which the substrate CPRG/Nonidet ([…]) was added to all wells. A color reaction developed within 2–6 h and could be read photometrically at 540 nm. Data were transferred into the graphic program Softmax Pro (Molecular Devices Cooperation, Sunnyvale, CA, USA) and the IC50 values were calculated from the sigmoidal dose response curves. Benznidazole was the reference drug.

[3] = tested on: Trypanosoma brucei rhodesiense STIB 900; assay: In vitro assay for Trypanosoma brucei rhodesiense (resazurin); format: cell-based; settings: Trypanosoma brucei; STIB 900 blood stream forms, 72 h; means of two independent determinations ± deviation from the mean; read-out: IC50 Trypanosoma brucei rhodesiense
Experimental: Trypanosoma brucei rhodesiense STIB 900 strain, isolated in 1982 from a human patient in Tanzania and, after several mouse passages, cloned and adapted to axenic culture conditions, was used in this assay. Minimum essential medium (50 μL) supplemented with 25 mM HEPES, 1 g/L additional glucose, 1% MEM non-essential amino acids (100×), 0.2 mM 2-mercaptoethanol, 1 mM Na-pyruvate, and 15% heat inactivated horse serum was added to each well of a 96 well microtiter plate. Serial drug dilutions of seven 3-fold dilution steps covering a range from 90 to 0.123 μg/mL were prepared, and then 4 × 10^4 blood stream forms of T. b. rhodesiense STIB 900 in 50 μL were added to each well and the plate was incubated at 37 °C under a 5% CO2 atmosphere for 72 h. Resazurin solution (resazurin, 12.5 mg in 100 mL double-distilled water) (10 μL) was then added to each well and incubated for a further 2–4 h. At the end of the assay, the plates were read with a Spectramax Gemini XS microplate fluorometer (Molecular Devices Cooperation, Sunnyvale, CA, USA) using an excitation wavelength of 536 nm and an emission wavelength of 588 nm. Data were analyzed using the microplate reader software Softmax Pro (Molecular Devices Cooperation, Sunnyvale, CA, USA). Melarsoprol was used as standard drug.

[4] = In vitro assay for cytotoxicity on mammalian cells (resazurin); format: cell-based, rat; settings: rat skeletal myoblasts, 72 h; means of two determinations ± deviation; read-out: IC50 Cytotoxicity L6 cells
Experimental: Assays were performed in 96 well microtiter plates (4 × 10^4 L6 cells/well), each well containing 100 μL of RPMI 1640 medium supplemented with 1% L-glutamine (200 mM) and 10% FBS. L6 cells are a primary cell line derived from rat skeletal myoblasts. Serial drug dilutions of seven 3-fold dilution steps covering a range from 90 to 0.123 μg/mL were prepared. After 72 h of incubation, the plates were inspected under an inverted microscope to assure growth of the controls and sterile conditions. Resazurin solution (10 μL) (12.5 mg resazurin in 100 mL double-distilled water) was then added to each well and the plates incubated for another 2 h. The plates were then read with a Spectramax Gemini XS microplate fluorometer (Molecular Devices Cooperation, Sunnyvale, CA, USA) using an excitation wavelength of 536 nm and an emission wavelength of 588 nm. Data were analyzed using the microplate reader software Softmax Pro (Molecular Devices Cooperation, Sunnyvale, CA, USA). From the sigmoidal inhibition curves, the IC50 values were calculated. Podophyllotoxin was the positive control.

CC1=CC=C(C(C)C)CC1 [α-Terpinene]
IC50 (P. falciparum K1 strain): 3.7 ± 1.5 µg/mL (≈ 27.2 µM) | animal longevity of T. evansi-infected mice (in words) (T. evansi): extend animal longevity | IC50 [1]: 10.5 ± 1.7 µg/mL (≈ 77.1 µM) | IC50 [2]: 49.1 ± 7.3 µg/mL (≈ 360 µM) | IC50 [3]: 3.1 ± 1.6 µg/mL (≈ 22.8 µM) | IC50 [4]: 84.7 ± 4.3 µg/mL (≈ 622 µM)
